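Exposure lasted 48 hours, with cells grown in 96-well plates and compounds tested at five concentrations. GI50 marks 50% less growth. TGI: total growth inhibition.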
Experiments:
Experiment in all cases: inhibition of tumour cell growth, NCI panel, 48 h
UACC-257 melanoma = test system: UACC-257 melanoma
HOP-62 NSCLC = test system: HOP-62 NSCLC
EKVX NSCLC = test system: EKVX NSCLC
PC-3 prostate = test system: PC-3 prostate
RPMI-8226 leukemia = test system: RPMI-8226 leukemia
HCT-116 colon = test system: HCT-116 colon
A549 NSCLC = test system: A549 NSCLC
SF-539 CNS = test system: SF-539 CNS
NCI-H23 lung = test system: NCI-H23 lung
OVCAR-5 ovarian = test system: OVCAR-5 ovarian
MOLT-4 leukemia = test system: MOLT-4 leukemia
SNB-75 CNS = test system: SNB-75 CNS
UO-31 renal = test system: UO-31 renal
COLO 205 colon = test system: COLO 205 colon
SW-620 colon = test system: SW-620 colon
TK-10 renal = test system: TK-10 renal
SF-268 CNS = test system: SF-268 CNS
SF-295 CNS = test system: SF-295 CNS
SN12C renal = test system: SN12C renal
OVCAR-8 ovarian = test system: OVCAR-8 ovarian
SK-MEL-5 melanoma = test system: SK-MEL-5 melanoma
DU-145 prostate = test system: DU-145 prostate
OVCAR-3 ovarian = test system: OVCAR-3 ovarian
U251 CNS = test system: U251 CNS
SK-MEL-28 melanoma = test system: SK-MEL-28 melanoma
NCI-H522 lung = test system: NCI-H522 lung
OVCAR-4 ovarian = test system: OVCAR-4 ovarian
MALME-3M melanoma = test system: MALME-3M melanoma
BT-549 breast = test system: BT-549 breast
KM12 colon = test system: KM12 colon
RXF 393 renal = test system: RXF 393 renal
HT29 colon = test system: HT29 colon
NCI/ADR-RES ovarian = test system: NCI/ADR-RES ovarian
SK-MEL-2 melanoma = test system: SK-MEL-2 melanoma
CAKI-1 renal = test system: CAKI-1 renal
HCT-15 colon = test system: HCT-15 colon
IGROV1 ovarian = test system: IGROV1 ovarian
LOX IMVI melanoma = test system: LOX IMVI melanoma
SR leukemia = test system: SR leukemia
MDA-MB-435 = test system: MDA-MB-435
NCI-H226 lung = test system: NCI-H226 lung
MCF7 breast = test system: MCF7 breast
UACC-62 melanoma = test system: UACC-62 melanoma
NCI-H460 lung = test system: NCI-H460 lung
CCRF-CEM leukemia = test system: CCRF-CEM leukemia
T-47D breast = test system: T-47D breast
ACHN renal = test system: ACHN renal
M14 melanoma = test system: M14 melanoma
HS 578T breast = test system: HS 578T breast
786-0 renal = test system: 786-0 renal
SNB-19 CNS = test system: SNB-19 CNS
MDA-MB-231 breast = test system: MDA-MB-231 breast
K-562 leukemia = test system: K-562 leukemia
SK-OV-3 ovarian = test system: SK-OV-3 ovarian
HL-60(TB) leukemia = test system: HL-60(TB) leukemia
HOP-92 NSCLC = test system: HOP-92 NSCLC
HCC-2998 colon = test system: HCC-2998 colon

Molecule O=C(Nc1cccc(C(F)(F)F)c1)Nc1cccc(C(F)(F)F)c1 has a GI50 (UACC-257 melanoma) of 1310 nM, a TGI (UACC-257 melanoma) of 4950 nM and a GI50 (HOP-62 NSCLC) of 1400 nM. It also gave a TGI (HOP-62 NSCLC) of 3640 nM, a GI50 (EKVX NSCLC) of 983 nM and a TGI (EKVX NSCLC) of 7880 nM. It also gave a GI50 (PC-3 prostate) of 374 nM, a TGI (PC-3 prostate) of 12500 nM and a GI50 (RPMI-8226 leukemia) of 382 nM. For the same molecule, the TGI (RPMI-8226 leukemia) was 5600 nM, the GI50 (HCT-116 colon) was 462 nM and the TGI (HCT-116 colon) was 2760 nM. The GI50 (A549 NSCLC) was 531 nM, the TGI (A549 NSCLC) was 8210 nM and the GI50 (SF-539 CNS) was 2130 nM. The TGI (SF-539 CNS) was 5230 nM, the GI50 (NCI-H23 lung) was 349 nM and the TGI (NCI-H23 lung) was 1970 nM. For the same molecule, the GI50 (OVCAR-5 ovarian) was 3240 nM, the TGI (OVCAR-5 ovarian) was 14800 nM and the GI50 (MOLT-4 leukemia) was 1340 nM. It also gave a TGI (MOLT-4 leukemia) of 6440 nM, a GI50 (SNB-75 CNS) of 3490 nM and a TGI (SNB-75 CNS) of 31700 nM. For the same molecule, the GI50 (UO-31 renal) was 649 nM, the TGI (UO-31 renal) was 4210 nM and the GI50 (COLO 205 colon) was 985 nM. It also gave a TGI (COLO 205 colon) of 2590 nM, a GI50 (SW-620 colon) of 798 nM and a TGI (SW-620 colon) of 6880 nM. For the same molecule, the GI50 (TK-10 renal) was 1300 nM, the TGI (TK-10 renal) was 7200 nM and the GI50 (SF-268 CNS) was 2100 nM. For the same molecule, the TGI (SF-268 CNS) was 10900 nM, the GI50 (SF-295 CNS) was 323 nM and the TGI (SF-295 CNS) was 1570 nM. For the same molecule, the GI50 (SN12C renal) was 923 nM, the TGI (SN12C renal) was 5240 nM and the GI50 (OVCAR-8 ovarian) was 1060 nM. It also gave a TGI (OVCAR-8 ovarian) of 10400 nM, a GI50 (SK-MEL-5 melanoma) of 1280 nM and a TGI (SK-MEL-5 melanoma) of 2550 nM. For the same molecule, the GI50 (DU-145 prostate) was 920 nM, the TGI (DU-145 prostate) was 12400 nM and the GI50 (OVCAR-3 ovarian) was 408 nM. The TGI (OVCAR-3 ovarian) was 5040 nM, the GI50 (U251 CNS) was 509 nM and the TGI (U251 CNS) was 3140 nM. It also gave a GI50 (SK-MEL-28 melanoma) of 1860 nM, a TGI (SK-MEL-28 melanoma) of 10500 nM and a GI50 (NCI-H522 lung) of 1200 nM. For the same molecule, the TGI (NCI-H522 lung) was 4320 nM, the GI50 (OVCAR-4 ovarian) was 679 nM and the TGI (OVCAR-4 ovarian) was 13700 nM. For the same molecule, the GI50 (MALME-3M melanoma) was 1360 nM, the TGI (MALME-3M melanoma) was 3920 nM and the GI50 (BT-549 breast) was 2290 nM. It also gave a TGI (BT-549 breast) of 6440 nM, a GI50 (KM12 colon) of 444 nM and a TGI (KM12 colon) of 3190 nM. It also gave a GI50 (RXF 393 renal) of 1490 nM, a TGI (RXF 393 renal) of 4350 nM and a GI50 (HT29 colon) of 840 nM. The TGI (HT29 colon) was 6060 nM, the GI50 (NCI/ADR-RES ovarian) was 651 nM and the TGI (NCI/ADR-RES ovarian) was 4840 nM. It also gave a GI50 (SK-MEL-2 melanoma) of 1840 nM, a TGI (SK-MEL-2 melanoma) of 4730 nM and a GI50 (CAKI-1 renal) of 1810 nM. For the same molecule, the TGI (CAKI-1 renal) was 11200 nM, the GI50 (HCT-15 colon) was 464 nM and the TGI (HCT-15 colon) was 3410 nM. It also gave a GI50 (IGROV1 ovarian) of 868 nM, a TGI (IGROV1 ovarian) of 10300 nM and a GI50 (LOX IMVI melanoma) of 1000 nM. The TGI (LOX IMVI melanoma) was 2280 nM, the GI50 (SR leukemia) was 1770 nM and the TGI (SR leukemia) was 7560 nM. It also gave a GI50 (MDA-MB-435) of 1440 nM, a TGI (MDA-MB-435) of 5510 nM and a GI50 (NCI-H226 lung) of 1010 nM. It also gave a TGI (NCI-H226 lung) of 3660 nM, a GI50 (MCF7 breast) of 852 nM and a TGI (MCF7 breast) of 10000 nM. It also gave a GI50 (UACC-62 melanoma) of 702 nM, a TGI (UACC-62 melanoma) of 2660 nM and a GI50 (NCI-H460 lung) of 441 nM. It also gave a TGI (NCI-H460 lung) of 5730 nM, a GI50 (CCRF-CEM leukemia) of 721 nM and a TGI (CCRF-CEM leukemia) of 10800 nM. For the same molecule, the GI50 (T-47D breast) was 398 nM, the TGI (T-47D breast) was 2940 nM and the GI50 (ACHN renal) was 422 nM. For the same molecule, the TGI (ACHN renal) was 7600 nM, the GI50 (M14 melanoma) was 1320 nM and the TGI (M14 melanoma) was 3930 nM. It also gave a GI50 (HS 578T breast) of 2250 nM, a TGI (HS 578T breast) of 12500 nM and a GI50 (786-0 renal) of 1560 nM. It also gave a TGI (786-0 renal) of 4140 nM, a GI50 (SNB-19 CNS) of 658 nM and a TGI (SNB-19 CNS) of 9930 nM. It also gave a GI50 (MDA-MB-231 breast) of 1470 nM, a TGI (MDA-MB-231 breast) of 3290 nM and a GI50 (K-562 leukemia) of 431 nM. The TGI (K-562 leukemia) was 10300 nM, the GI50 (SK-OV-3 ovarian) was 1890 nM and the TGI (SK-OV-3 ovarian) was 6340 nM. It also gave a GI50 (HL-60(TB) leukemia) of 1840 nM, a TGI (HL-60(TB) leukemia) of 5860 nM and a GI50 (HOP-92 NSCLC) of 786 nM. The TGI (HOP-92 NSCLC) was 6080 nM, the GI50 (HCC-2998 colon) was 1510 nM and the TGI (HCC-2998 colon) was 6500 nM.

— PubChem BioAssay (NCI)
